# Reference: patent US8361998B2, “Compounds and their use as IKACh blockers” (AstraZeneca AB, priority 2010, dated 2013)
# Target: T1, human cardiac ion channel proteins hKir3.1/Kir3.4 (Homo sapiens, UniProt P48544+P48549)
# T1 construct: expressed in transfected cells
# T1 sequence (P48549 1-501): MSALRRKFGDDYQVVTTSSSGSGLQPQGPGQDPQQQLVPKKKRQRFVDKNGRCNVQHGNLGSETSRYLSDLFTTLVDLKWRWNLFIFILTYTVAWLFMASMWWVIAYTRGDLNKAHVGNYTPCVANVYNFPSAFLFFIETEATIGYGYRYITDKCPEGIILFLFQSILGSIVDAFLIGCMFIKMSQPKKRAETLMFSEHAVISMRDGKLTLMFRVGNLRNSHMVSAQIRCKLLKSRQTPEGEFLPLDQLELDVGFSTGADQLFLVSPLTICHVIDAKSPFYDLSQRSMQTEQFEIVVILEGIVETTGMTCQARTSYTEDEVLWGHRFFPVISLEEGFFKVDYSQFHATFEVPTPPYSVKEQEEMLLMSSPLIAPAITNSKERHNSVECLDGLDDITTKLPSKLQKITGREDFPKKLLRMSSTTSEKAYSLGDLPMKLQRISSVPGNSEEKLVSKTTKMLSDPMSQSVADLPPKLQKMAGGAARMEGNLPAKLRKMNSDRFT
# T1 sequence (P48544 1-419): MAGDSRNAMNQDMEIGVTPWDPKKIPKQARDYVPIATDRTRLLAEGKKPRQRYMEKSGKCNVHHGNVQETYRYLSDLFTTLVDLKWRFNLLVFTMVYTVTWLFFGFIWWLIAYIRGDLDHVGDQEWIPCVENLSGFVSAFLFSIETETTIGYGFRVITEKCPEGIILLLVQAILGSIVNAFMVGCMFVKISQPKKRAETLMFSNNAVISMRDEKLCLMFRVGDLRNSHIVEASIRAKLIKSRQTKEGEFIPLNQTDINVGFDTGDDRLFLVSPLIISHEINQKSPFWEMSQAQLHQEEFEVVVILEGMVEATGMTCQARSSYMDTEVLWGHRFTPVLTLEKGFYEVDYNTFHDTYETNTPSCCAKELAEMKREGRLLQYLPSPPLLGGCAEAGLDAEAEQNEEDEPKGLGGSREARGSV
# Assay: Atomic Absorption Screening (AAS) Rb efflux assay of hKir3.1/Kir3.4 block, carbachol/high K+ stimulated, 10-pt or 7-pt CR
# Type: cell-based
# Conditions: 7-pt CR (0.037 to 27 μmol/L), AAS Rb efflux, CHO-K1 cells expressing hKir3.1/Kir3.4; mean of >3 replicates; read-out: IKACh IC50 7-pt CR, AAS
# Description: Human KCNJ3 encoding Kir3.1 (Genbank acc. No. NM_002239) was inserted between EcoRI and NotI in the pIRESneo3 vector (Clontech Laboratories, Inc. CA, USA). Human KCNJ5 encoding Kir3.4 (Genbank Acc. No. BC069482) was inserted between EcoR1 and Not1 in the pIRESpuro3 vector (Clontech Laboratories, Inc. CA, USA). A Kozak sequence (GCCACC) was introduced before the start codon ATG of both constructs. Chinese Hamster Ovary K1, CHO-FLP/IN, cells (Invitrogen Corporation, Paisley, UK) were transfected simultaneously using Lipofectamine 2000 reagent (Invitrogen Corporation, Paisley, UK). Geneticin 600 μg/mL (Invitrogen Corporation, Paisley, UK) and puromycin 3 μg/mL (BD Bioscience) were added to the cell culture medium 3 days after transfection. Two weeks after transfection, colonies had appeared and were manually picked and sorted to one cell per well in a 96-well plate. Cells were then tested for Kir3.1 and Kir3.4 expression using membrane potential assay, Western Blot and Immunocytochemistry. […] The cell line was re-sorted by flow cytometry and resulting clones were assayed electrophysiologically using IonWorks (Molecular Devices) and later validated on the Q-Patch (Sophion A/S).
# The stable cell line was cultured in DMEM/F12 with Glutamax 1 (Invitrogen Corporation, Paisley, UK), supplemented with foetal bovine serum 10%, puromycin 3 μg/mL, hygromycin 300 μg/mL and geneticin 600 μg/mL (Invitrogen Corporation, Paisley, UK). Care was taken not to seed cells at too low density and cells were passaged at approximately 70-80% confluency. Cells used for patch-clamp experiments were prepared by washing using PBS (—Mg, —Ca^2+), 2 times, detached using Accutase (Sigma). For Q-Patch measurements, storage medium was prepared fresh by adding 1.25 mL of 1M Hepes (GibcoBRL) to 50 mL CHO-SFM II medium (GibcoBRL) and detached cells were diluted to 2 million cells/mL in this medium. Frozen (Cryopreserved) cells were used for Atomic Absorption Screening (AAS) and plated poly-D-lysine 384-well plates (Greiner) at a density of 11,000-13,000 cells/well, the day before assay.
# The blocking effects of compounds on the human cardiac ion channel proteins hKir3.1/Kir3.4 were assessed in CHO-K1 cells stably expressing the channel proteins using Atomic Absorption Screening (AAS). Cells were washed and then loaded with 25 μL Rb-loading buffer for three hours at 37° C. After that, the cells were washed again and 25 μL of diluted compound was transferred to the cell plate, incubated for 5 min in RT, and then […] of Carbachol/high K+ (10 μM carbachol and 20 mM KCl final concentration) buffer added to stimulate the cells and open the Kir3.1/Kir3.4 channel. After 10 min stimulation, […] of the supernatant was transferred to a new microplate, 45 μL washing buffer added to the supernatant and the level of Rb in the supernatant was then measured using an Aurora ICR 8000. Compounds were studied at concentrations ranging from 0.003 to 67 μmol/L (dilutions by three, 10-pt CR) or from 0.037 to 27 μmol/L (dilutions by three, 7-pt CR).
# Stock solutions of compounds were prepared in DMSO 10 mM and stored at RT. Buffers used for AAS contained (in mM): HEPES 20, NaCl 150, MgCl2 1.0, CaCl2 2.0 and NaH2PO4 0.8 and Glucose 10 (wash 1) or KCl 5 and Glucose 5 (wash 2) or KCl 5 (dilution buffer). The High K^+ channel opener buffer contained (in mM): HEPES 20, NaCl 130, MgCl2 1.0, CaCl2 2.0 and NaH2PO4 0.8 together with KCl 20. Solutions used for Q-Patch (extracellular) in mM: NaCl 145, KCl 4, CaCl2 2.0, MgCl2 1.0, HEPES 10 and glucose 10. The high K^+ extra cellular solution used for Q-Patch in mM: NaCl 96.7, KCl 50.7, CaCl2 2.0, MgCl2 1.0, HEPES 10 and glucose 10 while the intra cellular solution used was (in mM): KCl 120, CaCl2 5.374, MgCl2 1.75, EGTA 10, KOH 3.125, HEPES 10, Na2ATP 4.
# Results are given as mean IC50 of >4 replicates (10-pt CR, AAS) or >3 replicates (7-pt CR, AAS). Some of the data in Table 1 are mean values of two or more runs. […]
row,IC50,SMILES
1,14 µM,"CC(C)[C@@H](CN1CCCCC1)N(C)C(=O)c1cccc(Cl)c1 [Example 16.37, (S)-3-Chloro-N-methyl-N-(3-methyl-1-(piperidin-1-yl)butan-2-yl)benzamide]"

# Same assay, conditions: 10-pt CR (0.003 to 67 μmol/L), AAS Rb efflux, CHO-K1 cells expressing hKir3.1/Kir3.4; mean of >4 replicates; read-out: IKACh IC50 10-pt CR, AAS
row,SMILES,IC50
1,"CN(C(=O)c1ccc(F)c(Cl)c1)C(CN1CC(O)C1)C1CCCC1 (single isomer, unassigned) [32.7, isomer 2]",0.16 µM
2,"CN(C(=O)c1ccc(F)cc1Cl)C(CN1CC(O)C1)C1CCCC1 (single isomer, unassigned) [32.6, isomer 1]",1.1 µM
3,"CN(C(=O)c1ccc(F)c(F)c1)[C@H](CN1CC(O)C1)C1CCCC1 (single isomer, unassigned) [32.1, isomer 1]",0.26 µM
4,"CN(C(=O)c1ccc(Cl)cc1)C(C)(C)CN1CCCC1 [Example 16.6, 4-Chloro-N-methyl-N-(2-methyl-1-(pyrrolidin-1-yl)propan-2-yl)benzamide]",20 µM
5,"Cc1cc(C(=O)N(C)C(CN2CC(O)C2)C2CCCC2)ccc1F (single isomer, unassigned) [32.4, isomer 2]",0.98 µM
6,"CCC[C@@H](CN1CC(OC)C1)N(C)C(=O)c1ccc(Cl)cc1 [Example 31.2, (S)-4-Chloro-N-(1-(3-methoxyazetidin-1-yl)pentan-2-yl)-N-methylbenzamide]",5.9 µM

# The next lines start with the values.
row,IC50,SMILES
1,11 µM,"CC(C)[C@@H](CN1CCCC1)N(C(=O)c1ccc(Cl)cc1)C1CCCC1 [Example 20, (S)-4-Chloro-N-cyclopentyl-N-(3-methyl-1-(pyrrolidin-1-yl)butan-2-yl)benzamide]"
2,0.92 µM,"CN(C(=O)c1cccc(C#N)c1)[C@H](CN1CC(O)C1)C1CCCCC1 [Example 36.3, 3-Cyano-N-[(1S)-1-cyclohexyl-2-(3-hydroxyazetidin-1-yl)ethyl]-N-methylbenzamide]"
3,6.1 µM,"Cc1cc(C(=O)N(C)[C@@H](C)CN2CC(O)C2)ccc1Cl [Example 40.4, (S)-4-Chloro-N-(1-(3-hydroxyazetidin-1-yl)propan-2-yl)-N,3-dimethylbenzamide]"
4,0.83 µM,"CSc1ccc(C(=O)N(C)[C@@H](CC(C)C)CN2CC(O)C2)cc1 [Example 38.8, N-[(2S)-1-(3-Hydroxyazetidin-1-yl)-4-methylpentan-2-yl]-N-methyl-4-(methylsulfanyl)benzamide]"
5,1.4 µM,"CN(C(=O)c1ccc(F)cc1)[C@H](CN1CC(O)C1)C1CCCCC1 [Example 36.7, N-[(1S)-1-Cyclohexyl-2-(3-hydroxyazetidin-1-yl)ethyl]-4-fluoro-N-methylbenzamide]"
6,0.68 µM,"CCC[C@@H](CN1CCC(OC)CC1)N(C)C(=O)c1ccc(Cl)cc1 [Example 45, (S)-4-Chloro-N-(1-(4-methoxypiperidin-1-yl)pentan-2-yl)-N-methylbenzamide]"
7,7.2 µM,"COc1cc(C(=O)N(C)[C@H](CN2CCC(OC)CC2)C(C)C)ccc1C [Example 3.11, (S)-3-Methoxy-N-(1-(4-methoxypiperidin-1-yl)-3-methylbutan-2-yl)-N,4-dimethylbenzamide]"
8,15 µM,"CC(C)[C@@H](CN1CCCCC1)N(C)C(=O)c1cccc(Cl)c1 [Example 16.37, (S)-3-Chloro-N-methyl-N-(3-methyl-1-(piperidin-1-yl)butan-2-yl)benzamide]"
9,11 µM,"CCC[C@@H](CN1CC(O)C1)N(C(=O)c1ccc(F)c(F)c1)C(C)C [Example 34.2, 3,4-Difluoro-N-[(2S)-1-(3-hydroxyazetidin-1-yl)pentan-2-yl]-N-(propan-2-yl)benzamide]"
10,14 µM,"CN(C(=O)c1ccc(C#N)cc1)[C@H](CN1CC(O)(C2CC2)C1)C1CC1 [Example 9.4, (S)-4-Cyano-N-(1-cyclopropyl-2-(3-cyclopropyl-3-hydroxyazetidin-1-yl)ethyl)-N-methylbenzamide]"
11,3.6 µM,"CC(C)[C@@H](CN1CC(F)C1)N(C)C(=O)c1ccc(F)c(C(F)(F)F)c1 [Example 1.9, (S)-4-Fluoro-N-(1-(3-fluoroazetidin-1-yl)-3-methyl-butan-2-yl)-N-methyl-3-(trifluoromethyl)benzamide]"
12,4.6 µM,"CN(C(=O)c1ccc(F)c(C#N)c1)[C@@H](CN1CC(O)C1)C1CCC1 [Example 35.9, 3-Cyano-N-[(1R)-1-cyclobutyl-2-(3-hydroxyazetidin-1-yl)ethyl]-4-fluoro-N-methylbenzamide]"
13,0.16 µM,"CCCC[C@@H](CN1CC(O)C1)N(C)C(=O)c1ccc(F)c(Cl)c1 [Example 33.8, 3-Chloro-4-fluoro-N-[(2S)-1-(3-hydroxyazetidin-1-yl)hexan-2-yl]-N-methylbenzamide]"
14,12 µM,"Cc1cc(C(=O)N(C)[C@H](CN2CC(F)C2)C(C)C)ccc1F [Example 1.5, (S)-4-Fluoro-N-(1-(3-fluoroazetidin-1-yl)-3-methylbutan-2-yl)-N,3-dimethylbenzamide]"

# Same assay, conditions: printed as IC50 >67 μM in the 10-pt CR assay or IC50 >27 μM in the 7-pt CR assay; assay format per compound not stated; read-out: IC50
row,IC50,SMILES
1,> 27 µM,"Cc1cc(C(=O)N(C)[C@H](CN2CCC(F)(F)C2)C(C)C)ccc1F [(S)-N-(1-(3,3-Difluoropyrrolidin-1-yl)-3-methylbutan-2-yl)-4-fluoro-N,3-dimethylbenzamide]"
2,> 27 µM,CC(C)[C@@H](CN1CCCCC1)N(C)C(=O)c1cccc(C#N)c1 [3-Cyano-N-methyl-N-[(1S)-2-methyl-1-(piperidin-1-ylmethyl)propyl]benzamide]
3,> 27 µM,CC(C)[C@@H](CN1CC(C)(O)C1)N(C)C(=O)c1ccccc1 [(S)-N-(1-(3-Hydroxy-3-methylazetidin-1-yl)-3-methylbutan-2-yl)-N-methylbenzamide]
4,> 27 µM,CC(C)[C@@H](CN1CC(F)C1)N(C)C(=O)c1ccc(C#N)cc1F [(S)-4-Cyano-2-fluoro-N-(1-(3-fluoroazetidin-1-yl)-3-methylbutan-2-yl)-N-methylbenzamide]
